In US4293695A, “Furonaphthyridine compounds” (Daiichi Seiyaku Co., Ltd., priority 1978, dated 1981):
In brackets after ≈: the same amount, converted by molar mass.

Tests used:
[1] = acute toxicity (LD50); settings: mouse, in vivo, iv; mice i.v.
Source text: (§1) Thus, these compounds are very useful anti-bacterial agents. The anti-bacterial activity (in vitro) and the acute toxicity (LD50) of the compounds of this invention are shown in the following Table in comparison with known oxolinic acid.

[2] = system: E. coli NIHJ; assay: MIC, dilution method on plate culture (heart infusion agar); assay type: cell-based; settings: Escherichia coli, 10^6/ml bacteria, 37° C., 18 hours, read-out: Minimum Inhibitory Concentration (MIC)
Procedure: as §1
(§2) *Determined by the standard method of Japan Society of Chemotherapy:
(§3) dilution method on plate culture (heart infusion agar culture), 10^6
(§4) /ml of bacteria were seeded and incubated at 37° C. for 18 hours.

[3] = system: K. pneumoniae, Type 1; assay: as above; assay type: cell-based; settings: Klebsiella pneumoniae, TYPE1, 10^6/ml bacteria, 37° C., 18 hours, read-out: Minimum Inhibitory Concentration (MIC)
Procedure: as §1, §2, §3, §4

[4] = system: Ser. marcescens 13014; assay: as above; assay type: cell-based; settings: Serratia marcescens, 10^6/ml bacteria, 37° C., 18 hours, read-out: Minimum Inhibitory Concentration (MIC)
Procedure: as §1, §2, §3, §4

[5] = system: Ps. aeruginosa 2063; assay: as above; assay type: cell-based; settings: Pseudomonas aeruginosa, 10^6/ml bacteria, 37° C., 18 hours, read-out: Minimum Inhibitory Concentration (MIC)
Procedure: as §1, §2, §3, §4

[6] = system: Pr. mirabilis; assay: as above; assay type: cell-based; settings: Proteus mirabilis, 10^6/ml bacteria, 37° C., 18 hours, read-out: Minimum Inhibitory Concentration (MIC)
Procedure: as §1, §2, §3, §4

[7] = system: Pr. vulgaris; assay: as above; assay type: cell-based; settings: Proteus vulgaris, 10^6/ml bacteria, 37° C., 18 hours, read-out: Minimum Inhibitory Concentration (MIC)
Procedure: as §1, §2, §3, §4

[8] = system: Ent. cloacae 12001; assay: as above; assay type: cell-based; settings: Enterobacter cloacae, 10^6/ml bacteria, 37° C., 18 hours, read-out: Minimum Inhibitory Concentration (MIC)
Procedure: as §1, §2, §3, §4

[9] = system: S. aureus; assay: as above; assay type: cell-based; settings: Staphylococcus aureus, 10^6/ml bacteria, 37° C., 18 hours, read-out: Minimum Inhibitory Concentration (MIC)
Procedure: as §1, §2, §3, §4

Row | Structure (SMILES) | LD50 [1] [mg/kg] | MIC [2] [µg/mL] | MIC [3] [µg/mL] | MIC [4] [µg/mL] | MIC [5] [µg/mL] | MIC [6] [µg/mL] | MIC [7] [µg/mL] | MIC [8] [µg/mL] | MIC [9] [µg/mL]
1 | CCn1cc(C(=O)O)c(=O)c2cc3occc3nc21 [Compound Ia, 5,8-dihydro-5-ethyl-8-oxofuro[3,2-b]-1,8-naphthyridine-7-carboxylic acid] | 221 | ≤ 0.2 | 1.6 (≈ 6.2 µM) | 0.4 (≈ 1.55 µM) | 3.1 (≈ 12 µM) | ≤ 0.2 | ≤ 0.2 | 0.4 (≈ 1.55 µM) | 3.1 (≈ 12 µM)
2 | CCn1cc(C(=O)O)c(=O)c2cc3c(nc21)CCO3 [Compound Ib, 5-ethyl-8-oxo-2,3,5,8-tetrahydrofuro[3,2-b]-1,8-naphthyridine-7-carboxylicacid] | 376 | ≤ 0.2 | 0.8 (≈ 3.07 µM) | ≤ 0.2 | 6.3 (≈ 24.2 µM) | ≤ 0.2 | ≤ 0.2 | ≤ 0.2 | 3.1 (≈ 11.9 µM)
3 | CCn1cc(C(=O)O)c(=O)c2cc3c(cc21)OCO3 [Oxolinic Acid, 5-ethyl-5,8-dihydro-8-oxo-1,3-dioxolo[4,5-g]quinoline-7-carboxylic acid, reference compound] | – | ≤ 0.2 | 3.1 (≈ 11.9 µM) | 0.8 (≈ 3.06 µM) | 25 (≈ 95.7 µM) | – | – | 0.8 (≈ 3.06 µM) | 3.1 (≈ 11.9 µM)
